According to ChEMBL document CHEMBL4014279, “Synthesis of novel pyrazolo[3,4-b]quinolinyl acetamide analogs, their evaluation for antimicrobial and anticancer activities, validation by molecular modeling and CoMFA analysis” (Eur J Med Chem, 2017):
≈ marks a conversion by molar mass, not a printed value. Calls of active or inactive are those of the source. The rule behind the calls is not given here.

How the values were obtained:
Candida albicans [1] = assay: Antifungal activity against Candida albicans MTCC 3018 after 24 hrs by well diffusion method; type: functional; conditions: MTCC 3018, 24 h
Micrococcus luteus = assay: Antibacterial activity against Micrococcus luteus MTCC 2470 after 24 hrs by well diffusion method; type: functional; conditions: MTCC 2470, 24 h
Candida albicans [2] = assay: Antifungal activity against Candida albicans MTCC 854 after 24 hrs by well diffusion method; type: functional; conditions: MTCC 854, 24 h
A549 = assay: Cytotoxicity against human A549 cells at >100 uM after 24 hrs by MTT assay; type: functional, cell-based
Candida parapsilosis = assay: Antifungal activity against Candida parapsilosis MTCC 1744 after 24 hrs by well diffusion method; type: functional; conditions: MTCC 1744, 24 h
Candida albicans [3] = assay: Antifungal activity against Candida albicans MTCC 7315 after 24 hrs by well diffusion method; type: functional; conditions: MTCC 7315, 24 h
Staphylococcus aureus [4] = assay: Antibacterial activity against Staphylococcus aureus MTCC 96 after 24 hrs by well diffusion method; type: functional; conditions: MTCC 96, 24 h
Candida albicans [5] = assay: Antifungal activity against Candida albicans MTCC 183 after 24 hrs by well diffusion method; type: functional; conditions: MTCC 183, 24 h
Candida albicans [6] = assay: Antifungal activity against Candida albicans MTCC 227 after 24 hrs by well diffusion method; type: functional; conditions: MTCC 227, 24 h
Escherichia coli [7] = assay: Antibacterial activity against Escherichia coli MTCC 739 after 24 hrs by well diffusion method; type: functional; conditions: MTCC 739, 24 h
Pseudomonas aeruginosa = assay: Antibacterial activity against Pseudomonas aeruginosa MTCC 2453 after 24 hrs by well diffusion method; type: functional; conditions: MTCC 2453, 24 h
HepG2 = assay: Cytotoxicity against human HepG2 cells at >100 uM after 24 hrs by MTT assay; type: functional, cell-based
COLO 205 = assay: Cytotoxicity against human COLO205 cells at >100 uM after 24 hrs by MTT assay; type: functional, cell-based
Candida albicans [8] = assay: Antifungal activity against Candida albicans MTCC 1637 after 24 hrs by well diffusion method; type: functional; conditions: MTCC 1637, 24 h
Candida albicans [9] = assay: Antifungal activity against Candida albicans MTCC 4748 after 24 hrs by well diffusion method; type: functional; conditions: MTCC 4748, 24 h
Bacillus subtilis [10] = assay: Antibacterial activity against Bacillus subtilis MTCC 121 after 24 hrs by well diffusion method; type: functional; conditions: MTCC 121, 24 h
Pichia sporocuriosa = assay: Antifungal activity against Issatchenkia hanoiensis MTCC 4755 after 24 hrs by well diffusion method; type: functional; conditions: MTCC 4755, 24 h
[Candida] aaseri = Antifungal activity against Candida aaseri MTCC 1962 after 24 hrs by well diffusion method; type: functional; conditions: Yamadazyma aaseri, MTCC 1962, 24 h
Staphylococcus aureus [11] = assay: Antibacterial activity against Staphylococcus aureus MLS16 MTCC 2940 after 24 hrs by well diffusion method; type: functional; conditions: MLS16 MTCC 2940, 24 h
HeLa = assay: Cytotoxicity against human HeLa cells at >100 uM after 24 hrs by MTT assay; type: functional, cell-based
Candida albicans [12] = assay: Antifungal activity against Candida albicans MTCC 3017 after 24 hrs by well diffusion method; type: functional; conditions: MTCC 3017, 24 h
Pichia kudriavzevii = assay: Antifungal activity against Candida krusei MTCC 3020 after 24 hrs by well diffusion method; type: functional; conditions: MTCC 3020, 24 h
Candida albicans [13] = assay: Antifungal activity against Candida albicans MTCC 3958 after 24 hrs by well diffusion method; type: functional; conditions: MTCC 3958, 24 h
Nakaseomyces glabratus = assay: Antifungal activity against Candida glabrata MTCC 3019 after 24 hrs by well diffusion method; type: functional; conditions: MTCC 3019, 24 h
Raoultella planticola = assay: Antibacterial activity against Klebsiella planticola MTCC 530 after 24 hrs by well diffusion method; type: functional; conditions: MTCC 530, 24 h
Bacillus subtilis [14] = assay: Antibiofilm activity against Bacillus subtilis MTCC 121 after 24 hrs by crystal violet staining based method; type: functional; conditions: MTCC 121, 24 h
Staphylococcus aureus [15] = assay: Induction of intracellular ROS accumulation in Staphylococcus aureus MLS16 MTCC 2940 sessile biofilm cells assessed as fluorescence intensity at 1 ug/ml after 24 hrs by DCFH-DA staining-based fluorescence assay (reference value: 62 +/- 9.8 a.u.); type: functional
Staphylococcus aureus [16] = assay: Induction of intracellular ROS accumulation in Staphylococcus aureus MLS16 MTCC 2940 sessile biofilm cells assessed as fluorescence intensity at 2 ug/ml after 24 hrs by DCFH-DA staining-based fluorescence assay (reference value: 62 +/- 9.8 a.u.); type: functional
Staphylococcus aureus [17] = assay: Induction of intracellular ROS accumulation in Staphylococcus aureus MLS16 MTCC 2940 sessile biofilm cells assessed as fluorescence intensity at 3 ug/ml after 24 hrs by DCFH-DA staining-based fluorescence assay (reference value: 62 +/- 9.8 a.u.); type: functional
Staphylococcus aureus [18] = assay: Induction of intracellular ROS accumulation in Staphylococcus aureus MLS16 MTCC 2940 sessile biofilm cells assessed as fluorescence intensity at 4 ug/ml after 24 hrs by DCFH-DA staining-based fluorescence assay (reference value: 62 +/- 9.8 a.u.); type: functional
Escherichia coli [19] = assay: Antibiofilm activity against Escherichia coli MTCC 739 after 24 hrs by crystal violet staining based method; type: functional; conditions: MTCC 739, 24 h

SMILES: O=C(Cn1nc(C(F)(F)F)c2c(-c3ccccc3)c3ccccc3nc21)N1CCOCC1
- MIC (Candida albicans [1]): 31.2 µg/mL (≈ 70.8 µM)
- MIC (Micrococcus luteus): 15.6 µg/mL (≈ 35.4 µM)
- MIC (Candida albicans [2]): 62.5 µg/mL (≈ 142 µM)
- Activity (A549): inactive
- MIC (Candida parapsilosis): 31.2 µg/mL (≈ 70.8 µM)
- MIC (Candida albicans [3]): 15.6 µg/mL (≈ 35.4 µM)
- MIC (Staphylococcus aureus [4]): 62.5 µg/mL (≈ 142 µM)
- MIC (Candida albicans [5]): 31.2 µg/mL (≈ 70.8 µM)
- MIC (Candida albicans [6]): 62.5 µg/mL (≈ 142 µM)
- MIC (Escherichia coli [7]): 62.5 µg/mL (≈ 142 µM)
- MIC (Pseudomonas aeruginosa): > 125 µg/mL
- Activity (HepG2): inactive
- Activity (COLO 205): inactive
- MIC (Candida albicans [8]): 62.5 µg/mL (≈ 142 µM)
- MIC (Candida albicans [9]): 31.2 µg/mL (≈ 70.8 µM)
- MIC (Bacillus subtilis [10]): 31.2 µg/mL (≈ 70.8 µM)
- MIC (Pichia sporocuriosa): 15.6 µg/mL (≈ 35.4 µM)
- MIC ([Candida] aaseri): 62.5 µg/mL (≈ 142 µM)
- MIC (Staphylococcus aureus [11]): 31.2 µg/mL (≈ 70.8 µM)
- Activity (HeLa): inactive
- MIC (Candida albicans [12]): 31.2 µg/mL (≈ 70.8 µM)
- MIC (Pichia kudriavzevii): 31.2 µg/mL (≈ 70.8 µM)
- MIC (Candida albicans [13]): 31.2 µg/mL (≈ 70.8 µM)
- MIC (Nakaseomyces glabratus): 31.2 µg/mL (≈ 70.8 µM)
- MIC (Raoultella planticola): 15.6 µg/mL (≈ 35.4 µM)

SMILES: O=C(Cn1nc(C(F)(F)F)c2c(-c3ccccc3)c3ccccc3nc21)N1CCN(CCO)CC1
- MIC (Micrococcus luteus): 7.8 to 125 µg/mL (≈ 16.1 to 259 µM)
- Activity (A549): inactive
- MIC (Staphylococcus aureus [4]): 7.8 to 125 µg/mL (≈ 16.1 to 259 µM)
- MIC (Escherichia coli [7]): 7.8 to 125 µg/mL (≈ 16.1 to 259 µM)
- MIC (Pseudomonas aeruginosa): 7.8 to 125 µg/mL (≈ 16.1 to 259 µM)
- Activity (HepG2): inactive
- Activity (COLO 205): inactive
- MIC (Bacillus subtilis [10]): 7.8 to 125 µg/mL (≈ 16.1 to 259 µM)
- MIC (Staphylococcus aureus [11]): 7.8 to 125 µg/mL (≈ 16.1 to 259 µM)
- Activity (HeLa): inactive
- MIC (Raoultella planticola): 7.8 to 125 µg/mL (≈ 16.1 to 259 µM)

SMILES: O=C(O)c1cn(C2CC2)c2cc(N3CCNCC3)c(F)cc2c1=O [CIPROFLOXACIN]
- MIC (Micrococcus luteus): 0.9 µg/mL (≈ 2.72 µM)
- IC50 (Bacillus subtilis [14]): 600 nM
- Flu intensity (Staphylococcus aureus [15]): 601 a.u.
- MIC (Staphylococcus aureus [4]): 0.9 µg/mL (≈ 2.72 µM)
- MIC (Escherichia coli [7]): 0.9 µg/mL (≈ 2.72 µM)
- MIC (Pseudomonas aeruginosa): 0.9 µg/mL (≈ 2.72 µM)
- Flu intensity (Staphylococcus aureus [16]): 925 a.u.
- Flu intensity (Staphylococcus aureus [17]): 1952 a.u.
- MIC (Bacillus subtilis [10]): 0.9 µg/mL (≈ 2.72 µM)
- Flu intensity (Staphylococcus aureus [18]): 2010 a.u.
- MIC (Staphylococcus aureus [11]): 0.9 µg/mL (≈ 2.72 µM)
- IC50 (Escherichia coli [19]): 800 nM
- MIC (Raoultella planticola): 0.9 µg/mL (≈ 2.72 µM)

SMILES: Cc1c2ccccc2nc2c1c(C(F)(F)F)nn2CC(=O)NC1CCCC1
- MIC (Micrococcus luteus): 7.8 to 125 µg/mL (≈ 20.7 to 332 µM)
- Activity (A549): inactive
- MIC (Staphylococcus aureus [4]): 7.8 to 125 µg/mL (≈ 20.7 to 332 µM)
- MIC (Escherichia coli [7]): 7.8 to 125 µg/mL (≈ 20.7 to 332 µM)
- MIC (Pseudomonas aeruginosa): 7.8 to 125 µg/mL (≈ 20.7 to 332 µM)
- Activity (HepG2): inactive
- Activity (COLO 205): inactive
- MIC (Bacillus subtilis [10]): 7.8 to 125 µg/mL (≈ 20.7 to 332 µM)
- MIC (Staphylococcus aureus [11]): 7.8 to 125 µg/mL (≈ 20.7 to 332 µM)
- Activity (HeLa): inactive
- MIC (Raoultella planticola): 7.8 to 125 µg/mL (≈ 20.7 to 332 µM)
